This is an account of results in patent US20220324880A1, “SMARCA INHIBITORS AND USES THEREOF” (Kymara Therapeutics, Inc., priority 2019, published 2022).

pIC50, pKd: −log10 of the molar value.

In the first test the target is T1, SMARCA2 (Homo sapiens, UniProt P51531). Nature of the test: SMARCA2 HTRF assay (His-tagged SMARCA2-17, anti-6His Tb cryptate). Conditions: read-out: SMARCA2 binding Human HTRF: Average IC50. The protocol: Sample handling: Prepared 1× Epigenetics Buffer according to manufacturer's instructions. Prepared 32 nM SMARCA2-17 (4X) with Epigenetics Buffer; Prepared 4× Tb working solution: dilute Mab Anti 6His Tb cryptate Gold in PPI-Terbium Detection buffer to 0.21 ng/l (100× dilution from stock). Prepared SMARCA2-mAb-Tb working solution by mixing equal volume of 32 nM SMARCA2 with Tb working solution. Started a half-hour timer. In a 96-well plate, prepared serial dilution of compound DMSO solutions. Placed 24 μl/well of Epigenetics Buffer to a second 96-well plate. Transferred 1 μl of the 100× compound DMSO solution to the second 96-well plate to make 4× compound working solution. Prepared 80 nM SMA-611-001H/SMA-788-001H (4×) with Epigenetics Buffer. Added 5 μl/well of SMA-611-001H into the 384-well plate. Added 5 μl/well of SMA-788-001H into the 384-well plate. Added 5 μl/well of 4× compound working solution into the 384-well plate, mix well. Added 10 µl/well of SMARCA2-mAb-Tb working solution into 384-well plate. Incubated the above mixtures at room temperature for 30 min. Data collected, processed and on EnVision. Calculated 520 nm/495 nm readouts ratio from raw data.
Target sequence in this assay (P51531 whole entry): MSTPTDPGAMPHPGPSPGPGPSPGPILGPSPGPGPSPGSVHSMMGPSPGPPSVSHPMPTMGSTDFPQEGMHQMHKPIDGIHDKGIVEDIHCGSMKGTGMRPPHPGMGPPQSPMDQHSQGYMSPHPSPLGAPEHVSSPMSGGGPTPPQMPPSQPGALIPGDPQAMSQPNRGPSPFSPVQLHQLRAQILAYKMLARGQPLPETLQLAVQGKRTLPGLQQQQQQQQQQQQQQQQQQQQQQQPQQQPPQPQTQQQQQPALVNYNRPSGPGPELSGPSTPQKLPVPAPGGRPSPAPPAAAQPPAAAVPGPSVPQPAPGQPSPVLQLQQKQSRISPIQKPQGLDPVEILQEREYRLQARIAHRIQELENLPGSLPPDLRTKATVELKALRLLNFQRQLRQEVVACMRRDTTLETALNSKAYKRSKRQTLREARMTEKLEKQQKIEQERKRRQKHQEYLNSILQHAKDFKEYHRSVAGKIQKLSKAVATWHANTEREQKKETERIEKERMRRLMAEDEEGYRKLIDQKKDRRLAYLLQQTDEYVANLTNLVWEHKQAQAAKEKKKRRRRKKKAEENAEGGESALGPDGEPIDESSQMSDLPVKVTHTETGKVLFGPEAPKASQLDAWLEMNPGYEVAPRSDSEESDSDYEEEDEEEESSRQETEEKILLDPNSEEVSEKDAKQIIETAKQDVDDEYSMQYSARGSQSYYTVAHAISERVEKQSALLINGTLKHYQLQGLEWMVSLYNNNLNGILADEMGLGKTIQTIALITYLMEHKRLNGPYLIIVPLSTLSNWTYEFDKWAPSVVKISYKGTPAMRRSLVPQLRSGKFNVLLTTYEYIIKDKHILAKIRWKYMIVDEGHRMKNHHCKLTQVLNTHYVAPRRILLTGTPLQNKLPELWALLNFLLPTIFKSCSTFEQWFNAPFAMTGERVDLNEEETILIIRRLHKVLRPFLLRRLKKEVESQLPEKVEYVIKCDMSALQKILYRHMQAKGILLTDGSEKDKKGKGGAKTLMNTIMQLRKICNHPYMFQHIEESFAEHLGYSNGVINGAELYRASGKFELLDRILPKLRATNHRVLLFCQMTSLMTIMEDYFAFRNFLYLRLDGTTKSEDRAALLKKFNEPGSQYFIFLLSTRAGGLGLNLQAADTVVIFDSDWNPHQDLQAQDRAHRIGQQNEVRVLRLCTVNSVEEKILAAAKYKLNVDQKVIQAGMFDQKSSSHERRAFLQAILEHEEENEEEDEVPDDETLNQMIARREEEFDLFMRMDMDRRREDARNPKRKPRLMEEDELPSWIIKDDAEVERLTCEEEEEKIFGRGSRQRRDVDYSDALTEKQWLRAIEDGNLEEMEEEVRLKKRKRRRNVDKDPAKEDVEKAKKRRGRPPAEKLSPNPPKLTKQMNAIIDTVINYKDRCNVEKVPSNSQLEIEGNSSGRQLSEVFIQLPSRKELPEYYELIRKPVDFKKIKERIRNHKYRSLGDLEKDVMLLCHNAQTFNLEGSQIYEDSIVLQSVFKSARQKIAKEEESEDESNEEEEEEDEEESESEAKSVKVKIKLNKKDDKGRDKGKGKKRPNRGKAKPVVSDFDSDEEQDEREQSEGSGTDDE
Usually pIC50 stands for the negative decadic logarithm of the IC50, by convention in mol/L. Regarding `Oc1ccccc1-c1cc2cc[nH]c2nn1` [I-19, 2-(7H-Pyrrolo[2,3-c]pyridazin-3-yl)phenol], the negative-log IC50 (pIC50) is 4.00 to 6.00. Turning to `Nc1ncc2ccccc2c1C#CC1CCNCC1` [I-25, 4-(Piperidin-4-ylethynyl)isoquinolin-3-amine], the pIC50 was 3.30 to 4.00.

The next test deals with T1, SMARCA2. Nature of the test: SMARCA2 BromoScan bromodomain binding assay (phage-displayed bromodomain, qPCR readout). Set-up: made in house; host or cells: E. coli host derived from the BL21 strain (T7 phage lysate). Conditions: read-out: BromoScan Panel - SMARCA2: External Kd. As for the experimental part:
Bromodomain assays. T7 phage strains displaying bromodomains were grown in parallel in 24-well blocks in an E. coli host derived from the BL21 strain. E. coli were grown to log-phase and infected with T7 phage from a frozen stock (multiplicity of infection=0.4) and incubated with shaking at 32° C. until lysis (90-150 minutes). The lysates were centrifuged (5,000×g) and filtered (0.2 μm) to remove cell debris. Streptavidin-coated magnetic beads were treated with biotinylated small molecule or acetylated peptide ligands for 30 minutes at room temperature to generate affinity resins for bromodomain assays. […] Test compounds were prepared as 1000λ stocks in 100% DMSO. Kds were determined using an 11-point 3-fold compound dilution series with one DMSO control point. […] The compounds were then diluted directly into the assays such that the final concentration of DMSO was 0.09%. All reactions performed in polypropylene 384-well plates. Each was a final volume of 0.02 ml. […] The bromodomain concentration in the eluates was measured by qPCR. Compound Handling: An 11-point 3-fold serial dilution of each test compound was prepared in 100% DMSO at 1000× final test concentration. […] The compounds were then diluted directly into the assays such that the final concentration of DMSO was 0.09%. […] Binding constants (Kds) were calculated with a standard dose-response curve using the Hill equation. Curves were fitted using a non-linear least square fit with the Levenberg-Marquardt algorithm.
On the technique in general: Quantitative PCR measures a nucleic acid by following its amplification.
Target sequence in this assay (P51531 1378-1506 limits assumed): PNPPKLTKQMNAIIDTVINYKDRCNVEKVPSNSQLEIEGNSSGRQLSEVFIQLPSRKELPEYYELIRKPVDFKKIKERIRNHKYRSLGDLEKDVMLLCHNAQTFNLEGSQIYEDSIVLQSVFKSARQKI
A word on the pKd: it is the negative decadic logarithm of the Kd, by convention in mol/L. As to `O=C(Nc1cc(C2CCNCC2)cc2[nH]ncc12)c1ccccc1O` [I-22, 2-Hydroxy-N-(6-(piperidin-4-yl)-1H-indazol-4-yl)benzamide], the pKd was less than 6.00. As to `Nc1nnc(-c2cccc(Cl)c2O)cc1N1CCNCC1` [I-32, 2-(6-Amino-5-(piperazin-1-yl)pyridazin-3-yl)-6-chlorophenol], the pKd was greater than 7.00.

Consider `Nc1nnc(-c2ccc(Cl)cc2O)cc1N1CCNCC1` [I-31, 2-(6-Amino-5-piperazin-1-yl-pyridazin-3-yl)-5-chloro-phenol], for which the pKd is less than 6.00. Same read-out and setting: as for `Oc1ccccc1-c1cc2cc[nH]c2nn1` [I-19, 2-(7H-Pyrrolo[2,3-c]pyridazin-3-yl)phenol], the figure is greater than 7.00; as for `Nc1nnc(-c2ccn[nH]2)cc1C1CCNCC1` [I-35, 4-(4-Piperidyl)-6-(1H-pyrazol-5-yl)pyridazin-3-amine], less than 6.00. For the compound `Oc1ccccc1-c1cc(-c2ccc(CN3CCNCC3)cc2)[nH]n1` [I-28, 2-[5-[4-(piperazin-1-ylmethyl)phenyl]-1H-pyrazol-3-yl]phenol], the pKd is less than 6.00. For the compound `CC(C)(C)OC(=O)N1CCCC1Cn1ccc2cccc(O)c2c1=O` (centres unmarked) [I-6, Tert-butyl-2-((8-hydroxy-1-oxoisoquinolin-2(1H)-yl)methyl)pyrrolidine-1-carboxylate], the pKd was less than 6.00.

Consider `O=c1c2c(O)cccc2ccn1Cc1cn[nH]c1` [I-4, 2-((1H-pyrazol-4-yl)methyl)-8-hydroxyisoquinolin-1(2H)-one], for which the pKd was less than 6.00. On to `Nc1ncc(-c2ncccn2)cc1C1CCNCC1` [I-13], for which the pKd was less than 6.00. Consider `O=c1c2c(O)cccc2ccn1Cc1cnn(Cc2ccccc2)c1` [I-3, 2-((1-benzyl-1H-pyrazol-4-yl)methyl)-8-hydroxyisoquinolin-1(2H)-one], for which the pKd is less than 6.00. On to `Cn1cccc(-c2cnc(N)c(-c3cn[nH]c3)c2)c1=O` [I-2, 3-[6-Amino-5-(1H-pyrazol-4-yl)-3-pyridyl]-1-methyl-pyridin-2-one], for which the pKd is less than 6.00. With `Nc1nnc(-c2cnccc2O)cc1N1CCNCC1` [I-17, 3-(6-Amino-5-(piperazin-1-yl)pyridazin-3-yl)pyridin-4-ol], the pKd was less than 6.00. As to `O=c1ncn(-c2ccccc2)c2cccc(Cl)c12` [I-11, 5-Chloro-1-phenylquinazolin-4(1H)-one], the pKd is less than 6.00. Take `c1ccc2c(c1)nnc1[nH]c(C3CCNCC3)cc12` [I-24, 2-(4-Piperidyl)-3H-pyrrolo [2,3-c]cinnoline]: the pKd was 6.00 to 6.30.

`O=C(Nc1ccc2cn[nH]c2c1)c1ccccc1O` [I-21, 2-Hydroxy-N-(1H-indazol-6-yl)benzamide]: the pKd is less than 6.00.

Consider `COC(=O)C1=CC(=O)N2CCCN=C2S1` [I-37], for which the pKd is less than 6.00.

With `O=c1c2c(O)cccc2ccn1CC1CCN(c2ccccn2)C1` (centres unmarked) [I-5, 8-hydroxy-2-((1-(pyridin-2-yl)pyrrolidin-3-yl)methyl)isoquinolin-1(2H)-one], the pKd is less than 6.00.

Turning to `Oc1ccccc1-c1cc2c(C3CCNCC3)c[nH]c2nn1` [I-20, 2-(5-(Piperidin-4-yl)-7H-pyrrolo[2,3-c]pyridazin-3-yl)phenol], the pKd was greater than 7.00. With `O=C(Nc1ccc2c(C3CCNCC3)n[nH]c2c1)c1ccccc1O` [I-23, 2-Hydroxy-N-[3-(4-piperidyl)-1H-indazol-6-yl]benzamide], the pKd was less than 6.00.

For `Cc1ccc(O)c(-c2cc(N3CCNCC3)c(N)nn2)c1` [I-34, 2-(6-Amino-5-piperazin-1-yl-pyridazin-3-yl)-4-methyl-phenol], the pKd is less than 6.00. The same measure, in the same setting: as for `Nc1ncc(-c2ncccn2)cc1N1CCNCC1` [I-14, 3-(piperazin-1-yl)-5-(pyrimidin-2-yl)pyridin-2-amine], the figure is less than 6.00. Turning to `Nc1ncc2c(Cl)cccc2c1C#CC1CCNCC1` [I-27, 8-Chloro-4-(piperidin-4-ylethynyl)isoquinolin-3-amine], the pKd is less than 6.00.

`CC(c1ccccc1)n1cc(-c2cc(-c3cccn(C)c3=O)cnc2N)cn1` (centres unmarked) [I-1, 6′-Amino-1-methyl-5′-(1-(1-phenylethyl)-1H-pyrazol-4-yl)-[3,3′-bipyridin]-2(1H)-one]: the pKd was less than 6.00. For the compound `CC(C)(C)OC(=O)N1CCC(Cn2ccc3cccc(O)c3c2=O)C1` (centres unmarked) [I-9, Tert-butyl 3-((8-hydroxy-1-oxoisoquinolin-2(1H)-yl)methyl)pyrrolidine-1-carboxylate], the pKd was less than 6.00.

For the compound `O=c1c2c(O)cccc2ccn1CC1CCCN1` (centres unmarked) [I-7, 8-hydroxy-2-(pyrrolidin-2-ylmethyl)isoquinolin-1(2H)-one], the pKd is less than 6.00. As for `Nc1nnc(-c2cc(Cl)ccc2O)cc1N1CCNCC1` [I-33, 2-(6-Amino-5-piperazin-1-yl-pyridazin-3-yl)-4-chloro-phenol], the pKd was 6.30 to 7.00.

As for `Nc1ncc(-c2cccc(Cl)c2)cc1N1CCNCC1` [I-15, 5-(3-chlorophenyl)-3-(piperazin-1-yl)pyridin-2-amine], the pKd was less than 6.00. For `Oc1ccccc1-c1n[nH]c2ccncc12` [I-30, 2-(1H-Pyrazolo[4,3-c]pyridin-3-yl)phenol], the pKd is less than 6.00. In the case of `COc1ccc(C(NC(=O)c2cc(-c3ccccc3O)n[nH]2)C2CC2)cc1` (centres unmarked) [I-38], the negative logarithm of the Kd (pKd) is less than 6.00.

Regarding `CCCCOc1ccc(N2CCN(c3cc(-c4ccccc4O)nnc3N)CC2)cc1` [I-18, 2-(6-Amino-5-(4-(4-butoxyphenyl)piperazin-1-yl)pyridazin-3-yl)phenol], the pKd is less than 6.00. `O=c1c2c(O)cccc2ccn1CC1CCNC1` (centres unmarked) [I-10, 8-hydroxy-2-(pyrrolidin-3-ylmethyl)isoquinolin-1(2H)-one]: the pKd was less than 6.00.

As to `O=C(NCC1CCN(c2ccccn2)CC1)c1ccccc1O` [I-16, 2-Hydroxy-N-((1-(pyridin-2-yl)piperidin-4-yl)methyl)benzamide], the pKd was less than 6.00.

Regarding `Oc1ccccc1-c1n[nH]c2ccccc12` [I-29, 2-(1H-indazol-3-yl)phenol], the negative logarithm of the Kd (pKd) is less than 6.00.
